Calls of active or inactive are those of the source. The rule behind the calls is not given here. Bounds are passed on as bounds.

The text below walks through data of ChEMBL document CHEMBL5346940, “Design, synthesis and biological evaluation of dual Topo II/HDAC inhibitors bearing pyrimido[5,4-b]indole and pyrazolo[3,4-d]pyrimidine motifs” (Eur J Med Chem, 2023).

One data set has as its system MCF7. In words: Antiproliferative activity against human MCF7 cells assessed as reduction in cell viability measured for 48 hrs by MTT assay. The class given is functional, cell-based. To be noted: MCF7, 48 h. (In general: Tetrazolium dyes change colour on reduction, which living cells bring about.)
Another data set concerns U-937. In words: Antiproliferative activity against human U-937 cells assessed as reduction in cell viability measured for 48 hrs by MTT assay. The class given is functional, cell-based. To be noted: U-937, 48 h.
In the next data set the test system is MGC-803. In words: Antiproliferative activity against human MGC-803 cells assessed as reduction in cell viability measured for 48 hrs by MTT assay. The data set is classed as functional, cell-based. To be noted: MGC-803, 48 h.
Data set [1] deals with DNA topoisomerase 2-alpha (Homo sapiens) (UniProt P11388). As to the kind of experiment: Inhibition of human topoisomerase 2 assessed as relaxation of pBR322 plasmid DNA at 100 uM measured after 30 mins by ethidium bromide staining based UV transilluminator analysis.
The next data set relates to NIH3T3. In words: Antiproliferative activity against mouse 3T3 cells assessed as reduction in cell viability at 100 uM measured for 48 hrs by MTT assay relative to control. The class given is toxicity, cell-based. To be noted: nih3t3, 48 h.
The target in data set [2] is T1, DNA topoisomerase 1 (Homo sapiens) (UniProt P11387).
T1 sequence (whole entry): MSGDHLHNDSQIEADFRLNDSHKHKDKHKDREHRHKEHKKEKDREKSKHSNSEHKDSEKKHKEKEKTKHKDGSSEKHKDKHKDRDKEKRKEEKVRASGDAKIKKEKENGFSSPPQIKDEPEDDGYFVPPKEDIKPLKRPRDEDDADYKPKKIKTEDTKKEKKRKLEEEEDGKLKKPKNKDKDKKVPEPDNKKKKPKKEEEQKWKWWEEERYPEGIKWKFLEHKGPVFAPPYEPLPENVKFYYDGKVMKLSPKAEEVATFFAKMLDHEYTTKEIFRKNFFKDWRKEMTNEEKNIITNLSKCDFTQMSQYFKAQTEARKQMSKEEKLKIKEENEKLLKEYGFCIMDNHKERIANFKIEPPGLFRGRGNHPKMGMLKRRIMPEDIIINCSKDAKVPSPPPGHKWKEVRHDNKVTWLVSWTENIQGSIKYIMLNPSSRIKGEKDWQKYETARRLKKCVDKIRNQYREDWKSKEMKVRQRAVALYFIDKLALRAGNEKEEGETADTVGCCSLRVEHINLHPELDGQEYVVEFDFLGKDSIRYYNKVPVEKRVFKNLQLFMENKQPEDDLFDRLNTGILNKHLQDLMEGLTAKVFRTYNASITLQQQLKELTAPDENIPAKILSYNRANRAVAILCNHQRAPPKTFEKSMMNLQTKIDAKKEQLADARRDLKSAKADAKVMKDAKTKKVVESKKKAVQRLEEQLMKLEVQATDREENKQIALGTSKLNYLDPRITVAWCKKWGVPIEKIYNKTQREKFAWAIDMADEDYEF
In words: Inhibition of human topoisomerase 1 assessed as relaxation of pBR322 plasmid DNA at 100 uM measured after 30 mins by agarose gel electrophoresis analysis.

A further data set addresses Histone deacetylase. In words: Inhibition of HDAC in human HeLa nuclear extract measured after 30 mins by fluorescence based assay. The class given is cell-free.

Sequence of DNA topoisomerase 2-alpha (Homo sapiens) (P11388 whole entry): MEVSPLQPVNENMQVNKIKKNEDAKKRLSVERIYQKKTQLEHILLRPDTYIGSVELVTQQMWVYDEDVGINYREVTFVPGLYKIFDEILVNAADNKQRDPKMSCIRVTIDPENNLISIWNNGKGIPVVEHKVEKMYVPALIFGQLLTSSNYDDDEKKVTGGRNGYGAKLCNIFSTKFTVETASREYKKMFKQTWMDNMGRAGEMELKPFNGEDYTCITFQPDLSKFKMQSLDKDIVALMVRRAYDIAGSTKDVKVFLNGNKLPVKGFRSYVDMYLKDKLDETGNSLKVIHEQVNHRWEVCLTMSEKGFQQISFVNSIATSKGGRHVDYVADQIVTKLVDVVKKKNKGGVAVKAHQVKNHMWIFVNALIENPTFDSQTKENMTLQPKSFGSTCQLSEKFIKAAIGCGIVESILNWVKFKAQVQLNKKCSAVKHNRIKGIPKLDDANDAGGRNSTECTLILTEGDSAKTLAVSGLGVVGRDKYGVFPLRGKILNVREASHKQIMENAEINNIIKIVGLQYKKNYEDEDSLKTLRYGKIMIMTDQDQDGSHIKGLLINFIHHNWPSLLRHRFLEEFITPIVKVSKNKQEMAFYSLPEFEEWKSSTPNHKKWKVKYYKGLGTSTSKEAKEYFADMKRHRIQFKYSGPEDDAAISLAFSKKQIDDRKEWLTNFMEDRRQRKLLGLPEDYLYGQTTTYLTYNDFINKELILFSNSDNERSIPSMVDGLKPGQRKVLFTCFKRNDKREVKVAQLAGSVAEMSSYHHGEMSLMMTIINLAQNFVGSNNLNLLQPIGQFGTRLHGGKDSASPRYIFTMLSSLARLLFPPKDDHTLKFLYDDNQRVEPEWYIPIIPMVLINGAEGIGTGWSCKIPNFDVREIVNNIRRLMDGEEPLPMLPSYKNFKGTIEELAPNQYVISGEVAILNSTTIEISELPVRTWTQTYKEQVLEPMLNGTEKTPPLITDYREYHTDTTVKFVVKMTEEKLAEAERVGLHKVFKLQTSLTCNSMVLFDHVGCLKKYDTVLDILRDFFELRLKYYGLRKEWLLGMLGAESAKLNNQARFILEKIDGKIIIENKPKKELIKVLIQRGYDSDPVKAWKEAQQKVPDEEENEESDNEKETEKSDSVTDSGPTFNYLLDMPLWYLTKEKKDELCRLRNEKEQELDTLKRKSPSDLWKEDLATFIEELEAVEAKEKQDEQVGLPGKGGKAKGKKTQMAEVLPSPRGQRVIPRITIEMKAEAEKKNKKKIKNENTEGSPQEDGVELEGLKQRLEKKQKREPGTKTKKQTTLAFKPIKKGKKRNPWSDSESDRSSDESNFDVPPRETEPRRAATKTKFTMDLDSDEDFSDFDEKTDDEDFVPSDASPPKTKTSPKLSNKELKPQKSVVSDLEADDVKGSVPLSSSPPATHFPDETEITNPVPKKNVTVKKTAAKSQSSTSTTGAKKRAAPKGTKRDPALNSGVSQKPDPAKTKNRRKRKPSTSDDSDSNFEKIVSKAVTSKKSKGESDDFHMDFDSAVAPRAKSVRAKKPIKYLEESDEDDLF

A word on the IC50: it is the midpoint of a concentration-inhibition curve. As to `O=C(CCCCSc1nc2[nH]ncc2c(=O)[nH]1)NO`, the figures for the IC50 in the data set with MCF7, with U-937 and in the data set with MGC-803 were 18.9 µM, 19.5 µM and 40 µM, respectively. In addition, the “topoisomerase II inhibition (active/inactive)” value in data set [1] was “Active”. For the same compound, the Activity in the data set with NIH3T3 is 24.26%. Besides, in data set [2], the “inhibition (active/inactive call)” value was “Active”.
For `O=C(CCCCCSc1nc2[nH]ncc2c(=O)[nH]1)NO`, the results for the IC50 in the data set on MCF7, in the data set on U-937 and in the data set with MGC-803 were 15.5 µM, 21.6 µM and 25.8 µM, respectively. The “topoisomerase II inhibition (active/inactive)” value in data set [1] is “Active”. Besides, the Activity in the data set with NIH3T3 was 20.31%. The “inhibition (active/inactive call)” value in data set [2] was “Active”.
Regarding `O=C(/C=C/c1ccc(CSc2nc3c([nH]c4ccccc43)c(=O)[nH]2)cc1)NO`, the IC50 was determined as 2.38 µM at Histone deacetylase, 37.2 µM in the data set on MCF7, 30.3 µM in the data set on U-937 and 21.8 µM in the data set on MGC-803. Moreover, in the data set on NIH3T3, the Activity amounted to 21.56%. For the same compound, the “inhibition (active/inactive call)” value in data set [2] was “Active”.
As for `O=C(CSc1nc2c([nH]c3ccccc32)c(=O)[nH]1)NO`, the IC50 with MCF7 is over 80 µM; in the data set on U-937 it was 26.7 µM; in the data set with MGC-803, over 80 µM. In addition, in data set [1], the “topoisomerase II inhibition (active/inactive)” value is “Active”. Further, the Activity with NIH3T3 amounted to 38.47%. Moreover, the “inhibition (active/inactive call)” value in data set [2] was “Active”.
`CCn1c(SCC(=O)NO)nc2c([nH]c3ccccc32)c1=O`: the IC50 in the data set on MCF7 was determined as 41.2 µM; in the data set on U-937, 15 µM; in the data set on MGC-803 it was 31.3 µM. The Activity with NIH3T3 amounted to 45.5%. For the same compound, the “inhibition (active/inactive call)” value in data set [2] is “Active”.
For `CCn1c(SCCCC(=O)NO)nc2c([nH]c3ccccc32)c1=O`, the IC50 with MCF7 is over 80 µM; with U-937, 18.1 µM; in the data set with MGC-803 it was 17.4 µM. Also, in the data set on NIH3T3, the Activity was 46.33%. Further, the “inhibition (active/inactive call)” value in data set [2] is “Active”.
The matching figures for `CCn1c(SCCCCCCCC(=O)NO)nc2c([nH]c3ccccc32)c1=O`: 19.6 µM, 25.1 µM, 36.4 µM, 43.12% and “Active”.
The matching figures for `CCn1c(SCCCCCC(=O)NO)nc2c([nH]c3ccccc32)c1=O`: 25.7 µM, 19.6 µM, 26 µM, 43.13% and “Active”.
On to `C/C(=N/O)c1ccc(NC(=O)CCCSc2nc3[nH]ncc3c(=O)[nH]2)cc1`, for which the IC50 is 36.4 µM in the data set with MCF7, 44.7 µM with U-937 and 36.6 µM in the data set with MGC-803. The Activity in the data set on NIH3T3 worked out at 38.02%. Further, the “inhibition (active/inactive call)” value in data set [2] is “Active”.
The matching figures for `C/C(=N\O)c1ccc(NC(=O)CSc2nc3[nH]ncc3c(=O)[nH]2)cc1`: 46.4 µM, 31.2 µM, 42.5 µM, 41.36% and “Active”.
Turning to `O=C(CCCCCCSc1nc2c([nH]c3ccccc32)c(=O)[nH]1)NO`, the half-inhibitory concentration (IC50) with MCF7 amounted to 25 µM; in the data set with U-937, 19.7 µM; with MGC-803, 19.9 µM. For the same compound, the “topoisomerase II inhibition (active/inactive)” value in data set [1] was “Active”. For the same compound, the Activity with NIH3T3 is on record as 53.49%. Moreover, the “inhibition (active/inactive call)” value in data set [2] is “Active”.
Turning to `O=C(/C=C/c1ccc(CSc2nc3[nH]ncc3c(=O)[nH]2)cc1)NO`, the IC50 in the data set on MCF7 worked out at 21.5 µM; in the data set on U-937 it was 47.7 µM; with MGC-803, 15.8 µM. Moreover, the “topoisomerase II inhibition (active/inactive)” value in data set [1] was “Active”. The Activity with NIH3T3 amounted to 39.04%. For the same compound, the “inhibition (active/inactive call)” value in data set [2] is “Active”.
`CCn1c(SC/C=C/C(=O)NO)nc2c([nH]c3ccccc32)c1=O`: the IC50 was determined as 35.5 µM in the data set with MCF7, 23.3 µM in the data set with U-937 and 25.5 µM with MGC-803. In addition, the Activity in the data set with NIH3T3 was 50.31%. The “inhibition (active/inactive call)” value in data set [2] is “Active”.
For the compound `O=C(CSc1nc2[nH]ncc2c(=O)[nH]1)NO`, the results for the half-inhibitory concentration (IC50) in the data set with MCF7, in the data set with U-937 and with MGC-803 were over 80 µM, 23.5 µM and 31.2 µM, respectively. Moreover, the “topoisomerase II inhibition (active/inactive)” value in data set [1] was “Active”. In addition, the Activity with NIH3T3 was found to be 41.42%. For the same compound, in data set [2], the “inhibition (active/inactive call)” value is “Active”.
For `CC[C@@]1(O)C(=O)OCc2c1cc1n(c2=O)Cc2cc3ccccc3nc2-1` [CAMPTOTHECIN], the concentration for half-maximal inhibition (IC50) in the data set on MCF7 came out at 18.6 µM; with U-937, 18.2 µM; in the data set with MGC-803, 17.8 µM. Moreover, the Activity in the data set with NIH3T3 was 37.51%.
With `CCn1c(SCCCCCCC(=O)NO)nc2c([nH]c3ccccc32)c1=O`, the figures for the IC50 in the data set with MCF7, in the data set on U-937 and with MGC-803 were 34.6 µM, 21.8 µM and 46.4 µM, respectively. The Activity with NIH3T3 is given as 61.71%. The “inhibition (active/inactive call)” value in data set [2] is “Active”.
As to `O=C(CCSc1nc2c([nH]c3ccccc32)c(=O)[nH]1)NO`, the IC50 with MCF7 was 59.6 µM; in the data set with U-937, 28 µM; in the data set on MGC-803, 24.8 µM. In addition, in data set [1], the “topoisomerase II inhibition (active/inactive)” value was “Active”. Also, in the data set on NIH3T3, the Activity was 21.73%. In addition, the “inhibition (active/inactive call)” value in data set [2] is “Active”.
On to `CCn1c(SCCC(=O)NO)nc2c([nH]c3ccccc32)c1=O`, for which the concentration for half-maximal inhibition (IC50) with MCF7 was 42.7 µM; with U-937 it was 18.2 µM; in the data set on MGC-803, 43.5 µM. The Activity in the data set on NIH3T3 turned out to be 53.79%. In addition, the “inhibition (active/inactive call)” value in data set [2] was “Active”.
Consider `C/C(=N\O)c1ccc(NC(=O)CSc2nc3c([nH]c4ccccc43)c(=O)[nH]2)cc1`, for which the IC50 was over 80 µM with MCF7, 37.2 µM with U-937 and 33.3 µM in the data set on MGC-803. Moreover, in data set [1], the “topoisomerase II inhibition (active/inactive)” value was “Active”. In addition, the Activity in the data set with NIH3T3 was determined as 18.72%. In addition, the “inhibition (active/inactive call)” value in data set [2] was “Active”.
As for `O=C(CCCSc1nc2[nH]ncc2c(=O)[nH]1)NO`, the values for the IC50 with MCF7, in the data set with U-937 and with MGC-803 were 20.4 µM, 21.7 µM and 27.5 µM, respectively. Moreover, in the data set on NIH3T3, the Activity is listed as 32.15%. Besides, in data set [2], the “inhibition (active/inactive call)” value is “Active”.
As for `O=C(CCCCCSc1nc2c([nH]c3ccccc32)c(=O)[nH]1)NO`, the IC50 against Histone deacetylase was 2.58 µM; in the data set on MCF7 it was 28.6 µM; in the data set on U-937, 34.8 µM; in the data set with MGC-803 it was 27.6 µM. Moreover, the “topoisomerase II inhibition (active/inactive)” value in data set [1] was “Active”. In the data set on NIH3T3, the Activity came to 65.7%. For the same compound, the “inhibition (active/inactive call)” value in data set [2] is “Active”.
In the case of `O=C(/C=C/CSc1nc2c([nH]c3ccccc32)c(=O)[nH]1)NO`, the 50% inhibitory concentration (IC50) in the data set on MCF7 was found to be 49.3 µM; in the data set with U-937 it was 21.9 µM; with MGC-803, 20.4 µM. Further, the “topoisomerase II inhibition (active/inactive)” value in data set [1] is “Active”. For the same compound, the Activity in the data set on NIH3T3 turned out to be 41.34%. In addition, the “inhibition (active/inactive call)” value in data set [2] is “Active”.
For `CCn1c(SCC(=O)Nc2ccc(/C(C)=N/O)cc2)nc2c([nH]c3ccccc32)c1=O`, the IC50 in the data set on MCF7 came to 37.2 µM; in the data set on U-937 it was 30.3 µM; with MGC-803 it was 48.4 µM. In addition, the “topoisomerase II inhibition (active/inactive)” value in data set [1] was “Active”. Also, the Activity in the data set on NIH3T3 was determined as 21.56%. For the same compound, the “inhibition (active/inactive call)” value in data set [2] is “Active”.
On to `O=C(CCCSc1nc2c([nH]c3ccccc32)c(=O)[nH]1)NO`, for which the figures for the IC50 in the data set on MCF7, in the data set on U-937 and in the data set with MGC-803 were 41.4 µM, 54.2 µM and 34.1 µM, respectively. For the same compound, in data set [1], the “topoisomerase II inhibition (active/inactive)” value was “Active”. Also, the Activity in the data set with NIH3T3 came to 38.06%. Besides, the “inhibition (active/inactive call)” value in data set [2] was “Active”.
On to `O=C(CCSc1nc2[nH]ncc2c(=O)[nH]1)NO`, for which the IC50 amounted to 22.6 µM in the data set on MCF7, 31.8 µM in the data set with U-937 and 19.1 µM in the data set with MGC-803. The “topoisomerase II inhibition (active/inactive)” value in data set [1] was “Active”. The Activity in the data set on NIH3T3 is given as 48.81%. For the same compound, the “inhibition (active/inactive call)” value in data set [2] is “Active”.
